# How the values were obtained:
# HL-60 cells = assay: Cell cycle arrest and apoptosis of HL-60 cells during induced differentiation; type: cell-based, human
# Procedure: Control cells were treated with an equivalent concentration of ethanol (<0.02%). […]
# total pRB [1] = assay: pRB^T in differentiating HL-60 cells, flow cytometry; type: cell-based, human; conditions: RA 5×10^−7 M 5 days, vitamin D3 10^−8 M 6 days
# Procedure: (§1) The human promyelocytic leukemic cell line HL-60 was kindly provided by Dr. Harry A. Crissman of the Los Alamos National Laboratory (Los Alamos, N. Mex.). The cells were maintained in RPMI 1640 supplemented with 10% fetal calf serum, 100 units/ml penicillin, 100 μg/ml streptomycin, and 2 mM L-glutamine at a density between 2 and 8×10^5 cells/ml at 37.5° C. in the mixture of 95% air and 5% CO2 for the periods of time described in the legends to the respective figures. During the exponential phase of cell growth, at densities below 8×10^5 cells/ml, the mean duration of the cell cycle of these cells is 23 hours (estimated as described in Darzynkiewicz, “Mammalian cell cycle analysis,” in The Cell Cycle: A Practical Approach, P. Fantes and R. Brooks, Eds., pp. 45–68 (Oxford Univ. Press, Oxford, UK, (1993)), and the mean duration of G1, S, G2, and M 11, 9, 2, and 1 h, respectively. The medium, supplements, and antibiotics were obtained from Life Technologies (Grand Island, N.Y.).
# (§2) All-trans retinoic acid (RA), 1,25-dihydroxy vitamin D3 (vitamin D3), and phorbol myristate acetate (PMA) were purchased from Sigma Chemical Co. (St. Louis, Mo.). […] Control cells were treated with an equivalent concentration of ethanol (<0.02%). Stock solution of PMA at 1.6 mM was prepared in DMSO, stored at −20° C. in the dark, and used at a final concentration of 4×10^−8 M. The cultures were kept shielded from light. […]
# (§3) Methods were essentially as described in Example 1. […] The cells were then rinsed with PBS containing 1% BSA, counterstained with 4,6-diamidino-2-phenyl indole (DAPI) (Molecular Probes Inc., Eugene, Oreg.), and their fluorescence was measured by flow cytometry.
# (§4) Cellular fluorescence was measured with the ELITE ESP flow cytometer/cell sorter (Coulter Inc., Miami, Fla.) using an argon ion laser (emission at 488 nm) combined with a helium-cadmium laser (emitting UV light). DNA content was analyzed based on DAPI fluorescence (blue emission) excited by UV light, while the anti-pRb^P− mAb (FITC)-related emission and anti-pRB^T (CYCHROME®)-related emission was excited with blue light laser. To obtain the mean fluorescence values as shown in FIGS. 7–10, the cells were gated based on differences in their DNA content to distinguish cells in G1, S, and G2/M, and from the mean values of the FITC fluorescence the mean value of the respective control cells (FITC-conjugated isotype-matched IgG1) in the same phase of the cycle was subtracted. The mean values of S phase cells were multiplied by 0.75 and of G2/M cells by 0.5 to express the pRB-associated cell fluorescence per unit of DNA. The data were normalized to the mean fluorescence value of G1 cells from the untreated, control culture (100), as shown in FIGS. 7–10.
# pRB [2] = assay: pRB^P−/pRB^T ratio in differentiating HL-60 cells, flow cytometry; type: cell-based, human; conditions: RA 5×10^−7 M 5 days, vitamin D3 10^−8 M 6 days
# Procedure: Briefly, the cells were fixed in suspension in 1% formaldehyde in PBS for 15 min on ice, then washed with PBS, and resuspended in ice-cold 80% ethanol for up to 24 h. […] The cells were then rinsed with PBS containing 1% BSA, counterstained with 4,6-diamidino-2-phenyl indole (DAPI) (Molecular Probes Inc., Eugene, Oreg.), and their fluorescence was measured by flow cytometry.
# hypophosphorylated pRB = assay: pRB^P− in differentiating HL-60 cells, flow cytometry; type: cell-based, human; conditions: RA 5×10^−7 M 5 days, vitamin D3 10^−8 M 6 days
# Procedure: as §1, §2, §3, §4
# pRB [3] = assay: Western blot of pRB in HL-60 cells with anti-pRB^P− and anti-pRB^T mAbs; type: cell-based, human; conditions: HL-60, treated versus control
# Excerpt: FIG. 10 presents a Western blot showing reactivity of anti-pRB^P− mAb(A) and anti-pRB^T mAb with proteins extracted from control (CON) and PMA-treated cells.
# To reveal specificity of the antibodies used in these experiments, a standard Western blotting procedure was used on cellular lysates, as described in Gong et al., Cell Growth Differ. 6:1485–1493 (1995).
# underphosphorylated pRB = assay: pRB phosphorylation in mitogen-stimulated lymphocytes, anti-pRB^P− mAb flow cytometry; type: cell-based, Human
# Procedure: (§5) Human peripheral blood lymphocytes, obtained from healthy volunteers by venipuncture, were isolated by density gradient centrifugation. The cells were washed twice with phosphate-buffered saline (PBS), resuspended in RPMI 1640 medium supplemented with 10% fetal calf serum, 100 units/ml penicillin, 100 μg/ml streptomycin and 2 mM L-glutamine at a density of 10^6 cells/ml, treated with 10 μg/ml of phytohemagglutinin (PHA) and incubated at 37.5° C. in the mixture of 95% air and 5% CO2 for the periods of time shown in the respective figure legends. The medium, supplements, and antibiotics were obtained from Life Technologies (Grand Island, N.Y.), PHA from Sigma Chemical Co. (St. Louis, Mo.).
# Stock solution of staurosporine (STP; Kamiya Biomedical Co., Thousand Oaks, Calif.) was made in dimethyl sulfoxide (DMSO) at a concentration 0.2 mM and was stored at −20° C.
# The cells were washed with PBS and fixed in suspension in 1% formaldehyde in PBS for 15 min on ice. The cells were then washed with PBS and resuspended in ice-cold 80% ethanol for up to 24 h. After fixation the cells were rinsed twice with PBS and resuspended in 100 μl of PBS containing 0.25% Triton X-100 (Sigma), 1% bovine serum albumin (BSA; Sigma) and 1.2 μg/ml of the anti-pRB^T mAb (clone G3-245; PharMingen cat. No. 14001A) conjugated with CYCHROME® and/or with 1 μg/ml of anti-pRB^P− mAb (clone G99-549; PharMingen cat. No. 14441A), conjugated with FITC and incubated for 2 hours at room temperature. The cells were then rinsed with PBS containing 1% BSA and their fluorescence was measured by flow cytometry.
# Cellular fluorescence was measured with the ELITE ESP flow cytometer/cell sorter (Coulter Inc., Miami, Fla.) using either an argon ion laser (emission at 488 nm) alone or combined with a helium-cadmium laser (emitting UV light). In the first case, fluorescence signals were collected using the standard configuration of the flow cytometer (green fluorescence, representing FITC labeled anti-pRB^P− mAb; red fluorescence representing CyChrome tagged anti-pRB^T mAb). In the second case, DNA content was analyzed based on DAPI fluorescence (blue emission) excited by UV light, while the anti-pRB^P− mAb FITC-related emission and anti-pRB^T CYCHROME®-related emission was excited with blue light laser. Unless noted, the procedures for multicolor measurement of cellular fluorescence and multivariate cell analysis were essentially as described in Juan et al., Cell. Prolif. 29:259–266 (1996) and Juan et al., Exper. Cell Res. 227:197–202 (1996). The experiments were repeated several times, on lymphocytes obtained from three different donors, yielding essentially identical results.
# cyclin D3 [4] = assay: Cyclin D3 expression in mitogen-stimulated lymphocytes, flow cytometry; type: cell-based, Human; conditions: 10 μg/ml
# Procedure: as §5
# After cell fixation (as described above) the cells were washed twice with PBS, suspended in 1 ml of 0.25% Triton X-100 in PBS, kept on ice for 5 min, centrifuged (300 g; 5 min) and the cell pellet resuspended in 100 μl of PBS containing 0.5 μg of the anti-cyclin D3 mAb (clone G107-565, mouse IgG,; PharMingen cat. No. 14781) and 1% BSA and incubated for 2 hours at room temperature. […] The cells were rinsed again, resuspended in 5 μg/ml of PI and 0.1% RNase in PBS and incubated at room temperature for 20 min prior to fluorescence measurements. Isotype-matched IgG (Sigma) was used as a control to define the background fluorescence. […]
# total pRB [5] = assay: Total pRB in mitogen-stimulated lymphocytes, anti-pRB^T mAb flow cytometry; type: cell-based, Human; conditions: 10 μg/ml, throughout all times of exposure
# Procedure: as §5
# The cells were washed with PBS and fixed in suspension in 1% formaldehyde in PBS for 15 min on ice. […] The cells were then rinsed with PBS containing 1% BSA and their fluorescence was measured by flow cytometry.
# Cellular fluorescence was measured with the ELITE ESP flow cytometer/cell sorter (Coulter Inc., Miami, Fla.) using either an argon ion laser (emission at 488 nm) alone or combined with a helium-cadmium laser (emitting UV light). In the first case, fluorescence signals were collected using the standard configuration of the flow cytometer (green fluorescence, representing FITC labeled anti-pRB^P− mAb; red fluorescence representing CyChrome tagged anti-pRB^T mAb). […]
# lymphocytes = conditions: 20 nM; cited from earlier work
# cyclin D3 [6] = conditions: lymphocytes, 20 nM; cited from earlier work
compound,measurement,setting,value
"CC1=C(/C=C/C(C)=C/C=C/C(C)=C/C(=O)O)C(C)(C)CCC1 [RA, All-trans retinoic acid]",cell cycle arrest on induced differentiation,HL-60 cells,cell arrest primarily in G0/1
same,increase in pRB^T of G0/1 cells versus untreated cultures,total pRB [1],60%
same,pRB^T of S and G2/M cells versus untreated cultures,total pRB [1],nearly twofold higher
same,pRB^P−/pRB^T level of S and G2/M phase cells versus control,pRB [2],over fivefold higher
same,increase in pRB^P− of G0/1 cells,hypophosphorylated pRB,fourfold
same,pRB^P− of S and G2/M phase cells versus control cultures,hypophosphorylated pRB,over an order of magnitude higher
"C=C1/C(=C\C=C2/CCC[C@]3(C)[C@@H]([C@H](C)CCCC(C)(C)O)CC[C@@H]23)C[C@@H](O)C[C@@H]1O [vitamin D3, 1,25-dihydroxy vitamin D3]",cell cycle arrest on induced differentiation,HL-60 cells,cell arrest primarily in G0/1
same,increase in pRB^T of G0/1 cells versus untreated cultures,total pRB [1],20%
same,pRB^T of S and G2/M cells versus untreated cultures,total pRB [1],nearly twofold higher
same,increase in pRB^P− of G0/1 cells,hypophosphorylated pRB,fourfold
same,pRB^P− of S and G2/M phase cells versus control cultures,hypophosphorylated pRB,over an order of magnitude higher
"CCCCCCCCCCCCCC(=O)O[C@@H]1[C@@H](C)[C@@]2(O)[C@@H](C=C(CO)C[C@]3(O)C(=O)C(C)=C[C@@H]23)[C@@H]2C(C)(C)[C@]12OC(C)=O [PMA, phorbol myristate acetate]",cell cycle arrest on induced differentiation,HL-60 cells,cell arrest primarily in G0/1
same,"bands of hypophosphorylated, hyperphosphorylated and total pRB, Western blot",pRB [3],increased intensity bands
phytohemagglutinin [PHA],percentage of anti-pRB^P− mAb negative cells,"underphosphorylated pRB; 10 μg/ml, at 24 h",45%
same,fraction of lymphocytes that did not react with anti-pRB^P− mAb,"underphosphorylated pRB; 10 μg/ml, between 4 and 12 hours",~80%
same,percentage of anti-pRB^P− mAb negative cells,"underphosphorylated pRB; 10 μg/ml, decreasing from 98 between 3 and 4 hours of stimulation",about 20%
same,percentage of anti-pRB^P− mAb negative cells,"underphosphorylated pRB; 10 μg/ml, up to 14 h",about 20%
same,proportion of cyclin D3-positive cells,cyclin D3 [4]; at 12 h,~70%
same,proportion of cyclin D3-positive cells,cyclin D3 [4]; at 24 h,40%
same,frequency of cells reactive with anti-pRB^T mAb,total pRB [5],over 80%
"CN[C@@H]1C[C@H]2O[C@@](C)([C@@H]1OC)n1c3ccccc3c3c4c(c5c6ccccc6n2c5c31)C(=O)NC4 [STP, staurosporine]",arrest of lymphocytes in cell cycle,lymphocytes,arrests lymphocytes in G1
same,appearance of the cell population unreactive with anti-pRB^P− mAb (pRB phosphorylation),"underphosphorylated pRB; lymphocytes stimulated with PHA 24 hours, 20 nM",precluded the appearance of the cell population unreactive with anti-pRB^P− mAb
same,induction of cyclin D3,cyclin D3 [6],does not interfere with the induction of cyclin D3
